According to patent publication US20180273970A1, “PLASMID, TRANSFORMED PLANT CELL AND TRANSGENIC PLANT COMPRISING THE SAME, AND METHODS FOR PREPARING A TRANSGENIC PLANT AND FOR INCREASING YIELD OF A PLANT UNDER ABIOTIC STRESSES” (Academia Sinica, priority 2014, published 2018):

Experiments:
αAmy3 SRC promoter [1] = experiment: Barley aleurone transient expression assay, SRC-35Smp:Luc reporter (luciferase); format: cell-based; conditions: barley aleurones, 5 μM ABA or 400 mM sorbitol, 24 h
Method: (§1) FIG. 21. ABA and sorbitol suppress the function of SnRK1A in activation of αAmy3 SRC promoter. Rice embryos and barley aleurones were transfected with reporter SRC-35Smp:Luc with or without effectors, incubated with or without ABA for 24 h, and assayed for luciferase activity. The luciferase activity in embryos or aleurones bombarded with the SRC-35S mp-Luc construct only and in +S medium was set to 1×, and other values were calculated relative to this value. Error bars indicate the SE for three replicate experiments. (A) Plasmid constructs. (B) Barley aleurones were transfected with effector Ubi:SnRK1A, Ubi:SKIN1 or Ubi:SKIN(Ri) alone and reporter SRC-35Smp:Luc, or co-transfected with effectors Ubi:SnRK1A and Ubi:SKIN or Ubi:SKIN(Ri) and reporter SRC-35Smp:Luc. (C) Rice embryos (upper panel) were transfected with or without Ubi:SnRK1A and incubated with or without 1 μM ABA or 50 mM sorbitol, and barley aleurones (lower panel) were transfected with or without Ubi:SnRK1A and incubated with 5 μM ABA or 400 mM sorbitol.
The barley aleurone/endosperm transient expression assays were performed as described (Hong et al., 2012). Each independent experiment consisted of three replicates, with six endosperms for each treatment, and was repeated three times with similar results. Luciferase and GUS activity assays were performed as described (Hong et al., 2012). […]

αAmy3 SRC promoter [2] = experiment: Rice embryo transient expression assay, SRC-35Smp:Luc reporter (luciferase); format: cell-based; conditions: rice embryos, 1 μM ABA or 50 mM sorbitol, 24 h
Method: FIG. 3. The highly conserved GKSKSF domain (KSD) is essential for SKINs to antagonize the function of SnRK1A. Rice embryos were transfected with plasmids, incubated in medium with 100 mM glucose (+S) or without glucose (−S) for 24 h, and assayed for luciferase activity. The luciferase activity in rice embryos bombarded with the SRC-35S mp-Luc construct only and in +S medium was set to 1×, and other values were calculated relative to this value. Error bars indicate the SE for three replicate experiments. (A) Plasmid constructs. (B) Rice embryos were co-transfected with effector Ubi:SnRK1A, Ubi:SKIN1 or Ubi:SKIN(Ri) alone and reporter SRC-35Smp:Luc, or co-transfected with effectors Ubi:SnRK1A and Ubi:SKIN or Ubi:SKIN(Ri) and reporter SRC-35Smp:Luc. (C) Total cellular proteins were extracted from rice embryos transfected with Ubi:SnRK1A, Ubi:SKIN or Ubi:SnRK1A and Ubi:SKIN by particle bombardment and subjected to Western blot analysis using antibodies against SnRK1A and the HA tag fused to at the N-terminus of SKINs. (D) Rice embryos were co-transfected with effectors Ubi:SnRK1A and Ubi:SKIN1 (wild-type or truncated) and reporter SRC-35Smp:Luc. (E) Rice embryos were co-transfected with effectors Ubi:SnRK1A and Ubi:SKIN (wild-type, KSD deleted, or KSD replaced with 6 Ala) and reporter SRC-35Smp:Luc.
as §1
Rice embryos were prepared for particle bombardment as described (Chen et al., 2006). The rice embryos were bombarded with reporter, effectors and internal control at a ratio of 4:2:1 for single effector or 4:2:2:1 for two effectors. The internal control (Ubi::GUS) was used to normalize the reporter enzyme activity because different transformation efficiency might occur in each independent experiment. Bombarded rice embryos were divided into two halves, with half being incubated in MS liquid medium containing 100 mM Glc, and the other half grown in MS liquid containing 100 mM mannitol, for 24 h. Total proteins were extracted for embryos with a cell lysis buffer [0.1 M K-phosphate, pH 7.8, 1 mM EDTA, 10% glycerol, 1% triton X-100, and 7 mM β-mercaptoethanol]. GUS assay buffer [0.1 M Na-phosphate, 20 mM EDTA, 0.2% sarcosine, 0.2% Triton X-100, and 20 mM β-mercaptoethanol] was used for GUS activity assay. The activity assay of GUS and luciferase were described elsewhere (Lu et al., 1998). All bombardments were repeated at least three times.

rice seedlings = experiment: Germination and seedling shoot growth in water containing ABA; format: in vivo; conditions: ABA 1 to 10 μM, 6 days, 28° C., 14-h light/10-h dark
Method: FIG. 9. The expression of SKIN is induced by various abiotic stresses and ABA, and SKINs promote the ABA sensitivity. (A) Total RNA was purified from leaves of 2-week-old rice seedlings that had been air dried, treated with 200 mM salt, incubated at 4° C., or treated with 1 μM ABA, or from embryos of seedlings grown underwater (hypoxia), for various lengths of time. RNAs were subjected to quantitative RT-PCR analysis using primers specific for SKIN1 and SKIN2. The highest mRNA level was set as 100%. The lowest mRNA level was assigned a value of 1× and mRNA levels of other samples were calculated relative to this value. Error bars indicate the SE for three replicate experiments. (B) Seeds of transgenic lines SKIN1-Ox(O3), SKIN1-Ri(R3), SKIN2-Ox(02) and SKIN2-Ri(R1) were germinated and grown in water containing various concentrations of ABA at 28° C. under a 14-h light/10-h dark cycle for 6 days. Lengths of shoots were measured. Error bars represent SE (n=8) at significance levels: * p<0.1, ** p<0.05. For photos of treated seedlings, see also FIG. 20 online.
FIG. 20. Growth of transgenic rice overexpressing SKIN is more sensitive to ABA inhibition. Seeds of transgenic lines SKIN1-Ox(O3), SKIN1-Ri(R3), SKIN2-Ox(02) and SKIN2-Ri(R1) were germinated and grown in water containing various concentrations of ABA for 6 days at 28 C under a 14-h light/10-h dark cycle. […]

Compound: CC1=CC(=O)CC(C)(C)[C@@]1(O)/C=C/C(C)=C\C(=O)O [ABA, abscisic acid]
- Effect on αAmy3 SRC promoter (luciferase activity), alone and SnRK1A-activated (αAmy3 SRC promoter [1]): suppressed
- Effect on αAmy3 SRC promoter (luciferase activity), alone and SnRK1A-activated (αAmy3 SRC promoter [2]): suppressed
- Degree of inhibition on growth of wild type and all transgenic lines (rice seedlings): increased with ABA concentrations from 1 to 10 μM
